The values that follow come from PMC10247778, “PXL1 and SERKs act as receptor–coreceptor complexes for the CLE19 peptide to regulate pollen development” (Nature Communications, 2023).

Test [1] deals with PXL1 (PXL1^LRR). The test can be described thus: Gel filtration-MALDI-TOF identification of peptides copurified with PXL1 LRR. The settings on record: PXL1^LRR incubated with synthesized peptide mixture (0.1 mg each), 10 mM Bis-Tris pH 6.0, 100 mM NaCl, on ice 1 h, Superdex 200. The format is binding, Arabidopsis. How it is done:
As part of an effort to identify cognate receptors for peptidyl ligands in Arabidopsis, a pool of synthetic CLE small peptides (Supplementary Table 1) was mixed with purified individual extracellular LRR domains of receptor-like kinases (RLKs). The putative RLK-ligand complexes were purified by gel-filtration, and the peptides were detected by mass spectrometry, as reported previously.
Purified PXL1^LRR protein (with buffer containing 10 mM Bis-Tris pH 6.0, 100 mM NaCl) was incubated with synthesized peptide mixture (0.1 mg for each; Supplementary Table 1) on ice for 1 h. Then, each mixture was subjected to gel filtration (Superdex 200, GE Healthcare) for analysis. The relevant peak fractions of PXL1^LRR were collected and 2 μl was used for analyzed by MALDI-TOF–mass spectrometry analysis.
For orientation: Size exclusion chromatography separates by hydrodynamic size, large species first.

Test [2] addresses PXY LRR (Arabidopsis thaliana) (UniProt Q9FII5). The test can be described thus: ITC. The settings on record: cited from earlier work.
Test [3] has as its target PXL1 LRR (Arabidopsis thaliana) (UniProt Q9FRS6). The test can be described thus: ITC. The settings on record: cited from earlier work.
In test [4] the target is PXL2 LRR (Arabidopsis thaliana) (UniProt Q9M0G7). The test can be described thus: ITC. The following applies: cited from earlier work.
In test [5] the test system is PXL1 (PXL1-FLAG). The test can be described thus: In vivo phosphorylation assay, Phos-tag SDS-PAGE and western blot. The test is classed as cell-based, Arabidopsis. The settings on record: 10-day-old pPXL1::PXL1-FLAG seedlings, 20 µM peptide, 1.5 h; Phos-tag gel, anti-FLAG; λpp control. How it is done:
Ten-day-old […] transgenic seedlings were tested to observe the phosphorylation status of PXL1. The seedlings were cultured in 1/2 MS liquid medium treated with mock or 20 μM CLE19, CLE19[…] or CLV3 peptide for 1.5 h and then ground to a fine powder in liquid N2 for protein extraction performed as described above. The extracted protein was analyzed by Phos-tag (Wako) gel and immunoblotting using anti-FLAG (GNI) antibody. The anti-HSP70 (Abmart) antibody was used to determine the amount of input protein. Anti-FLAG beads (Abmart) were used for immunoprecipitation to purify the PXL1-FLAG protein. Anti-pS/T (ECM) was used to detect the phosphorylation status of the PXL1 protein after CLE19 treatment. The seedling protein extracted was also treated with λpp (NEB) at 30 °C for 0.5 h and then analyzed by anti-FLAG and anti-HSP antibodies.
Background: A western blot detects proteins with antibodies after separation by electrophoresis.

Test [6] has as its target PXL1^∆KD–SERK1^∆KD interaction. The test can be described thus: Co-IP PXL1^∆KD-SERK1^∆KD in Nicotiana benthamiana. The format is cell-based, Arabidopsis. The following applies: N. benthamiana leaves, with or without peptide 3–4 h; GFP-Trap, anti-Myc. An excerpt: The 825 bp SERK1 (SERK1^∆KD), 834 bp SERK2 (SERK2^∆KD) and the 927 bp SERK3/BAK1 (BAK1^∆KD) coding regions were amplified with the primers listed in Supplementary Table 3. The PCR products of SERK1^∆KD, SERK2^∆KD and BAK1^∆KD were inserted into the pCAMBIA1306-GFP vector at the KpnI and SalI sites to generate the pCAMBIA1306-SERK1^∆KD/2/BAK1^∆KD-GFP constructs. pCAMBIA1306-PXL^∆KD -MYC, pCAMBIA1306-SERK1^∆KD GFP and pCAMBIA1306-BAK1^∆KD-GFP were transferred into the Agrobacterium tumefaciens GV3101 strain.
The cultures were grown overnight in 2 x YT medium and resuspended to optical density at 600 nm (OD600) = 2.0 in an injection buffer (150 μM acetosyringone, 10 mM MgCl2 and 10 mM MES). […]
Total proteins were extracted from the N. benthamiana leaves with the extraction buffer (50 mM Tris-HCl (pH 7.5), 150 mM NaCl, 5 mM EDTA, 5% glycerol, 1% Triton X-100 with protease inhibitor, phosphatase inhibitor, and PMSF) and then incubated with GFP-Trap beads (Chromo Tek) at 4 °C for 4 h, followed by two washes (50 mM Tris-HCl (pH 7.5), 150 mM NaCl, 5 mM EDTA, 5% glycerol, and 0.01% Triton X-100). Proteins were separated on SDS-PAGE gels and detected by anti-Myc (GNI) antibody via western blots.

Test [7] deals with T1, PXL1^LRR (extracellular LRR domain of PXY-LIKE1, residues 1-639, 6xHis) (Arabidopsis, UniProt Q9FRS6 24-639).
T1 construct: signal peptide in the construct; PXL1 (PXY-LIKE1), Arabidopsis, AT1G08590, LRR domains, residues 1-639; also called PXL1 ectodomain; PXL1^LRR-6×His; source: High Five cells, purified (Ni-NTA, size-exclusion chromatography)
T1 sequence (looked up): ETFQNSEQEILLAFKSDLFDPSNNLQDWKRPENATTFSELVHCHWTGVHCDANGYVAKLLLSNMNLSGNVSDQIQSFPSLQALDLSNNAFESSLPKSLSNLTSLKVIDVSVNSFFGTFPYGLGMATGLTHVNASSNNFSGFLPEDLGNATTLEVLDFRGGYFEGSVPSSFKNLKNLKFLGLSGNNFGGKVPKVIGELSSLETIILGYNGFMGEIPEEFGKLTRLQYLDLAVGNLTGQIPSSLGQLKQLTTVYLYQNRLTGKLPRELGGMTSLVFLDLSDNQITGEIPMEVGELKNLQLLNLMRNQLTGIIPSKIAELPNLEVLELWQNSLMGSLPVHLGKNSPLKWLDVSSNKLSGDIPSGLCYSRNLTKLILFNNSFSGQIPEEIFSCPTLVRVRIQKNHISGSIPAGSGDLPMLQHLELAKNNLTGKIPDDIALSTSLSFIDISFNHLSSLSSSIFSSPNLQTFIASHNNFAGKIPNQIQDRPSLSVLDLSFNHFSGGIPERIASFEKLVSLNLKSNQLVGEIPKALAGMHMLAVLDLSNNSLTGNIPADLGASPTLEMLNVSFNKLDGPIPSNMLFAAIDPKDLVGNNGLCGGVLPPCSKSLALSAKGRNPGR
The test can be described thus: ITC; ITC200; 1 mM CLE19 titrated into 0.1 mM PXL1^LRR in the cell, 20 injections; 10 mM Bis-Tris pH 6.0, 100 mM NaCl; 25 °C. The following applies: both partners purified.

The target in test [8] is PXL2 (protein used for ITC) (Arabidopsis, UniProt Q9M0G7 24-1013). The test can be described thus: ITC; CLE19 with PXL2 and with PXY; conditions not told for these proteins. The settings on record: both partners purified. In general terms: ITC needs no label: the signal is the heat of the interaction.

“Also recorded” adds a separate entry of the source. Ends that are not written are not given here.

Chain of PXL2 (protein used for ITC) (Q9M0G7 24-1013): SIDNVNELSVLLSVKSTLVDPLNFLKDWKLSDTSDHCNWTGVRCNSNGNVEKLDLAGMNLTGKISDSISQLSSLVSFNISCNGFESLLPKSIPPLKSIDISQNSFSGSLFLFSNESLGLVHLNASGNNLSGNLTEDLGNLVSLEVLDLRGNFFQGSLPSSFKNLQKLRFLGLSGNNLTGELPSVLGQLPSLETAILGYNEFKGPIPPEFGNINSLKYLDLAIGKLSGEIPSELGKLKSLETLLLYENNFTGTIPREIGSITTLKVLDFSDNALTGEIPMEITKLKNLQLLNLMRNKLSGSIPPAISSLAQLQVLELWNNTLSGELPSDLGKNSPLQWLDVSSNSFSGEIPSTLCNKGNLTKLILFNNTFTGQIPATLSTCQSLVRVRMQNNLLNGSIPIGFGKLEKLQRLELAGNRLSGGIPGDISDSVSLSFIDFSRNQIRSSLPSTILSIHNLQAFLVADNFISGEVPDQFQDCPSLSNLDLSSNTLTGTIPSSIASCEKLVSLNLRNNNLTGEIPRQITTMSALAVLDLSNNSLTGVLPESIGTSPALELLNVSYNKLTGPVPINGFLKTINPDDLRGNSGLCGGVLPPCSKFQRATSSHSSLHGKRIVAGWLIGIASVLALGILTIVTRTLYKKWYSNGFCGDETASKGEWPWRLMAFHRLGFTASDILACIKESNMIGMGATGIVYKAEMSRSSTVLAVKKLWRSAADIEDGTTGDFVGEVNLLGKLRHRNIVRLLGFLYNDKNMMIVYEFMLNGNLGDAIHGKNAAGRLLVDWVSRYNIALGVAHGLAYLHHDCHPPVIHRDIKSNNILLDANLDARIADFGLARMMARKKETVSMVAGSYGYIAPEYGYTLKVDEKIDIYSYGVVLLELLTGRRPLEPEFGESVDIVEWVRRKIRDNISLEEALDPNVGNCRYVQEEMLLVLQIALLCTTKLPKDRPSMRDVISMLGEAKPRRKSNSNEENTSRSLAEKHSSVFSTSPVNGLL
Chain of PXY LRR (Arabidopsis thaliana) (Q9FII5 30-652): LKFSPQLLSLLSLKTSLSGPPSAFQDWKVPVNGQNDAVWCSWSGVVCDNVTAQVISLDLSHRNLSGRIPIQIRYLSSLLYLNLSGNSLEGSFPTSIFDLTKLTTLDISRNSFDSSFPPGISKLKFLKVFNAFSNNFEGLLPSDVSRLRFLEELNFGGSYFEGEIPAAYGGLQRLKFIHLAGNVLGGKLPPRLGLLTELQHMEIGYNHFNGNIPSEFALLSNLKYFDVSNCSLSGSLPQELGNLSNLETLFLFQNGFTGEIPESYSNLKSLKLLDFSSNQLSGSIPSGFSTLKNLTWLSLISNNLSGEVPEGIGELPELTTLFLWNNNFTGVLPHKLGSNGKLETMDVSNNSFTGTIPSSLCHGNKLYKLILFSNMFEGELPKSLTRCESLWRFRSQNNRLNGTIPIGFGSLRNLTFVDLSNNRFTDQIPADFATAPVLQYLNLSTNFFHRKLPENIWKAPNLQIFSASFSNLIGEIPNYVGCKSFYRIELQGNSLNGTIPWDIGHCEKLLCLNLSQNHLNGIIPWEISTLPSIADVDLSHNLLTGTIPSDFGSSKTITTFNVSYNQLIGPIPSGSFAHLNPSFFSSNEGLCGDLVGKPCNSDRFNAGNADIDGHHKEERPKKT
Chain of PXL2 LRR (Arabidopsis thaliana) (Q9M0G7 24-633): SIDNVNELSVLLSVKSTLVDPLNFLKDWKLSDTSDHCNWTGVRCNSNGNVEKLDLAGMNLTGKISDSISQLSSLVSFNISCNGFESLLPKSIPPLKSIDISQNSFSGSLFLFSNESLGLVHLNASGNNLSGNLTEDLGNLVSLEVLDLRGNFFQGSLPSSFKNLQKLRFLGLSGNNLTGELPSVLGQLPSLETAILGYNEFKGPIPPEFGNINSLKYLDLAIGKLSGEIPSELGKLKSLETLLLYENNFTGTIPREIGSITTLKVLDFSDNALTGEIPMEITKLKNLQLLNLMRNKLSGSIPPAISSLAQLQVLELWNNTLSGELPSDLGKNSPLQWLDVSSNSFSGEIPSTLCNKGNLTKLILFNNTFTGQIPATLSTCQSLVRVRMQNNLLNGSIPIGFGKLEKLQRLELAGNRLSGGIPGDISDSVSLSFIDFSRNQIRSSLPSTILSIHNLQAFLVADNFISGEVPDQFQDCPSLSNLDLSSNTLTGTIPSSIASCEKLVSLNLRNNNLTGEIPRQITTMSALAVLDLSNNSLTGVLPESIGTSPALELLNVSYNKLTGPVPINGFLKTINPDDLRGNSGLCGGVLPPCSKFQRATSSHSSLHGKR

As for “CLE18: CLE peptide (RQIPTGPDPLHN; ends and bridges not checked; UniProt Q3ECH9 37-48, looked up)”, the “CLE peptide copurified with PXL1” value in test [1] was “CLE19 was the only CLE peptide that co-purified with PXL1”. Same read-out and setting: with “CLE11: CLE peptide (RVVPSGPNPLHH; ends and bridges not checked; UniProt Q3ECU1 88-99, looked up)” the entry was “CLE19 was the only CLE peptide that co-purified with PXL1”; with “CLE14: CLE peptide (RLVPKGPNPLHN; ends and bridges not checked; UniProt Q3ECJ5 68-79, looked up)”, “CLE19 was the only CLE peptide that co-purified with PXL1”. On the same count and under the same terms, to “CLE46: CLE peptide (HKHPSGPNPTGN; ends and bridges not checked; UniProt Q8LDN4 58-69, looked up)” belongs “CLE19 was the only CLE peptide that co-purified with PXL1”. Still for that read-out and setting: to “CLE25: CLE peptide (RKVPNGPDPIHN; ends and bridges not checked; UniProt Q8LFL4 58-69, looked up)” belongs “CLE19 was the only CLE peptide that co-purified with PXL1”; to “CLE8: CLE peptide (RRVPTGPNPLHH; ends and bridges not checked; UniProt Q2V4E2 61-72, looked up)”, “CLE19 was the only CLE peptide that co-purified with PXL1”; to “CLE9: CLE peptide (RLVPSGPNPLHN; ends and bridges not checked; UniProt Q9FZE4 109-120, looked up)”, “CLE19 was the only CLE peptide that co-purified with PXL1”. Consider “CLE43: CLE peptide (RRIPSSPDRLHN; ends and bridges not checked; UniProt Q6IWB1 85-96, looked up)”, for which, in test [1], the “CLE peptide copurified with PXL1” value was “CLE19 was the only CLE peptide that co-purified with PXL1”. The same measure, in the same setting: to “CLE20: CLE peptide (RKVKTGSNPLHN; ends and bridges not checked; UniProt Q3EDI6 70-81, looked up)” belongs “CLE19 was the only CLE peptide that co-purified with PXL1”; to “CLE3: synthetic CLE small peptide of the pool (RLSPGGPDPRHH; ends and bridges not checked; UniProt Q3EDH8 72-83, looked up)”, “CLE19 was the only CLE peptide that co-purified with PXL1; also recorded: but not CLV3, CLE3, CLE6, and others”; to “CLE6: synthetic CLE small peptide of the pool (RVSPGGPDPQHH; ends and bridges not checked; UniProt Q8S8N3 70-81, looked up)”, “CLE19 was the only CLE peptide that co-purified with PXL1; also recorded: but not CLV3, CLE3, CLE6, and others”. On the same count and under the same terms, with “CLE12: CLE peptide (RRVPSGPNPLHH; ends and bridges not checked; UniProt Q29PU4 107-118, looked up)” the entry was “CLE19 was the only CLE peptide that co-purified with PXL1”.

As to CLE41 (from UniProt Q84W98), the Kd is 33 nM in test [2], 2100 nM in test [3] and 9900 nM in test [4]. As for CLAVATA3 [CLV3], the “PXL1 phosphorylation (Phos-tag migration)” value in test [5] is recorded as “Neither CLE19G6T nor CLV3 induced the phosphorylation-related migration of PXL1; also recorded: PXL1 phosphorylation was not induced”. Moreover, the “PXL1^∆KD-SERK1^∆KD interaction (co-IP)” value in test [6] was “no such interaction was detected in the absence of CLE19 or the presence of CLV3”. The “CLE peptide copurified with PXL1” value in test [1] was “interaction with PXL1 was not detected; also recorded: CLE19 was the only CLE peptide that co-purified with PXL1; also recorded: but not CLV3, CLE3, CLE6, and others”. Consider “CLE19G6T: functionally inactive CLE19G6T (RVIPTTPNPLHN; ends and bridges not checked; UniProt Q8W261 62-73, looked up, variant G6T)”, for which, in test [5], the “PXL1 phosphorylation (Phos-tag migration)” value is “Neither CLE19G6T nor CLV3 induced the phosphorylation-related migration of PXL1; also recorded: PXL1 phosphorylation was not induced; also recorded: lost the ability of inducing PXL1 phosphorylation”. “CLE45: CLE peptide (RRVRRGSDPIHN; ends and bridges not checked; UniProt Q6IWA9 107-118, looked up)”: the “CLE peptide copurified with PXL1” value in test [1] was “CLE19 was the only CLE peptide that co-purified with PXL1”. “CLE40: CLE peptide (RQVPTGSDPLHH; ends and bridges not checked; UniProt Q9LXU0 62-73, looked up)”: in test [1], the “CLE peptide copurified with PXL1” value is listed as “CLE19 was the only CLE peptide that co-purified with PXL1”.

As to “CLE16: CLE peptide (RLVHTGPNPLHN; ends and bridges not checked; UniProt Q8S8M2 92-103, looked up)”, the “CLE peptide copurified with PXL1” value in test [1] is on record as “CLE19 was the only CLE peptide that co-purified with PXL1”.

B1: CLAVATA3/EMBRYO SURROUNDING REGION-RELATED 19 (CLE19) peptide (peptide)
chain: RVIPTGPNPLHN
On to B1, for which the Kd in test [7] is ~346 nM.

B2: CLAVATA3/EMBRYO SURROUNDING REGION-RELATED 19 (CLE19) peptide (peptide)
chain: RVIPTGPNPLHN
modifications: ends and bridges not checked
B2 returned a Kd in test [8] of 714 nM.

As a reminder, the Kd is the concentration at which binding is half-saturated.
